Data set [1] deals with GlyT2. The note with it: read-out: GlyT2 IC50; cited from earlier work.
For data set [2] the following is noted: following IV administration; cited from earlier work.
Data set [3] relates to nerve ligation rat model of neuropathic pain. Type of data set: in vivo. Conditions: 30 mg/kg ip, compared to vehicle.
Another data set has as its system male Sprague Dawley rats. The data set can be described thus: Side effects in the analgesia study. Type of data set: in vivo, rat. Conditions: 30 mg/kg ip.
Another data set relates to GlyT1. Conditions: cited from earlier work.
For the next data set, the target named is T1, human GlyT2a (Homo sapiens, UniProt Q9Y345).
T1 sequence (Q9Y345 1-797): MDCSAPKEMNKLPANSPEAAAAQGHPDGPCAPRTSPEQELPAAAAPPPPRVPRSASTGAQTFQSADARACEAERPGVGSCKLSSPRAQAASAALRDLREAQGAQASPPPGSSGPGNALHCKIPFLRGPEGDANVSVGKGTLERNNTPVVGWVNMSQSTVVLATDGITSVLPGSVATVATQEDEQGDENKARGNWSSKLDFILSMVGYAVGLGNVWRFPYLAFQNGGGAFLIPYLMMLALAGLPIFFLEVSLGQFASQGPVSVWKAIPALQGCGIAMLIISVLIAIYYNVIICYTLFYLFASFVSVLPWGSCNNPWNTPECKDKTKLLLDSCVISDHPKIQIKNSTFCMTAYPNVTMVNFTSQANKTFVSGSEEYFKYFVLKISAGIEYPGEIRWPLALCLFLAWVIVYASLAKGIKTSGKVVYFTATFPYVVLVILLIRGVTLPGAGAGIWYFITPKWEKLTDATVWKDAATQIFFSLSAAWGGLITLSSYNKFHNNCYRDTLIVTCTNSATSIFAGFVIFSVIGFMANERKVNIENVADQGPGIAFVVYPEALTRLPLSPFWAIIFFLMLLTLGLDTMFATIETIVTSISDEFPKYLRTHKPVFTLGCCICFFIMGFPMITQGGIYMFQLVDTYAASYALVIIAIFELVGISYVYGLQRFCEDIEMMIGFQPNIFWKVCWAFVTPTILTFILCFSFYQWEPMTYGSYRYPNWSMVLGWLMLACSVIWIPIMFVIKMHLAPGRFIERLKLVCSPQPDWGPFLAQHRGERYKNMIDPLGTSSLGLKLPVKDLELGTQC
Type of data set: cell-based.

Another data set addresses T2, human GlyT1b (Homo sapiens, UniProt P48067).
T2 sequence (P48067 1-652 isoform P48067-3): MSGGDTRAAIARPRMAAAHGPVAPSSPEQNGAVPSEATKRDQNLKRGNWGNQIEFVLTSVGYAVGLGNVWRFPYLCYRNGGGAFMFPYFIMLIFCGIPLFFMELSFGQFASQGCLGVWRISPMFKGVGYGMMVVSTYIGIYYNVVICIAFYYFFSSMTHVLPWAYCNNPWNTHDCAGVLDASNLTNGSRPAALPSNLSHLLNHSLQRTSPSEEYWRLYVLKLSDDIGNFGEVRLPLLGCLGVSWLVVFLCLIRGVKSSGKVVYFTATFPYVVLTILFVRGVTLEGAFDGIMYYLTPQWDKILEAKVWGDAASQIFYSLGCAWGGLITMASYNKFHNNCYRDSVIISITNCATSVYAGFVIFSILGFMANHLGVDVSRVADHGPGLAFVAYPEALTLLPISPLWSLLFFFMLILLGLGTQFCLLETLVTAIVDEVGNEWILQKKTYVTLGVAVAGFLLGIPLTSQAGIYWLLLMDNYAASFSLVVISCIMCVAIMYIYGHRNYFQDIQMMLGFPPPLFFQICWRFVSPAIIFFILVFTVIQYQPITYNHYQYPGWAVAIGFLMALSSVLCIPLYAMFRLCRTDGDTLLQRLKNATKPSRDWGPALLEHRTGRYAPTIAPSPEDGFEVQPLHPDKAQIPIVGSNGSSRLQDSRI
Type of data set: cell-based. The note with it: 3 μM (maximal concentration).

Data set [4] deals with T3, GlyT2 (Homo sapiens, UniProt Q9Y345).
T3 sequence (Q9Y345 1-797): T1 sequence (Q9Y345 1-797)
Type of data set: cell-based.

Data set [5] in a line: Stability in human plasma. Type of data set: in vitro ADME.
Another data set in a line: Stability in rat plasma. Type of data set: in vitro ADME.
Data set [6] in a line: Stability in human liver microsomes. Type of data set: in vitro ADME. Conditions: for half-life at 1 μM: human, human liver microsomes, pH 7.4. On the technique in general: Liver microsomes are vesicles of endoplasmic reticulum, rich in cytochrome P450 enzymes.
Data set [7] can be described thus: Stability in rat liver microsomes. Type of data set: in vitro ADME.
The target of data set [8] is T3, GlyT2. The experiment in a line: Electrophysiology washout assay. Type of data set: cell-based. The note with it: IC50 concentration of inhibitor, after 25 minutes wash.
In a further data set the target is T4, Adrenergic α2A receptor (Homo sapiens, UniProt P08913).
T4 sequence (P08913 1-465): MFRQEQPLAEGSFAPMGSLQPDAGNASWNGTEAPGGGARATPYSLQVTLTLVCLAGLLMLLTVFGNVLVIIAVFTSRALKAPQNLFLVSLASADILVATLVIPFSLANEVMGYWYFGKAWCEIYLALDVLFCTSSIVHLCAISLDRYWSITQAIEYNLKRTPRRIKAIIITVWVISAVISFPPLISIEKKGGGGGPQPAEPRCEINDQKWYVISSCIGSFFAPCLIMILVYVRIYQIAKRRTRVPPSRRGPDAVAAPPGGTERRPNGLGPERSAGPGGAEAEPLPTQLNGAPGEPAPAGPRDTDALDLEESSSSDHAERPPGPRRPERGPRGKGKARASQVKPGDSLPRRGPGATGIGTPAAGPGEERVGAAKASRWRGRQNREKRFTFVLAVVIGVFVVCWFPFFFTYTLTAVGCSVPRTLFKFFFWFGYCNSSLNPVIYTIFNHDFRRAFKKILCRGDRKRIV
The data set can be described thus: Selectivity panel, displacement of radioactive ligand. Type of data set: binding. Conditions: 10 μM.

Data set [9] concerns the target norepinephrine transporter (Homo sapiens, UniProt P23975). The data set is described as above. Type of data set: binding. Conditions: 10 μM.
In the next data set the target is μ opioid receptor (μOR) (Homo sapiens, UniProt P35372). Described as above. Type of data set: binding. Conditions: 10 μM.
Sequence of μ opioid receptor (μOR) (P35372 whole entry, species assumed): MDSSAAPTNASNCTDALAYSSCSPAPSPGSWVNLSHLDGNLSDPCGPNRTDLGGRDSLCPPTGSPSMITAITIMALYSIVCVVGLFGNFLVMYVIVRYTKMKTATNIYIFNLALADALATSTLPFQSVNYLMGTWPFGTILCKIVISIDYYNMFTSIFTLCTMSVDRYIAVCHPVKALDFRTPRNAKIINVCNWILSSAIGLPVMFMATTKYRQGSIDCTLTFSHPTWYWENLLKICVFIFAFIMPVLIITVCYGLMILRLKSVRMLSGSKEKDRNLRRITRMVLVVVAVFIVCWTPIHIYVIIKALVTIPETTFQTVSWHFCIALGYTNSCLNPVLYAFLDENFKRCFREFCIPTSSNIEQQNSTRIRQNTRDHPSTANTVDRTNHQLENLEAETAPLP
A further data set has as its target μOR (Homo sapiens, UniProt P35372). The experiment in a line: μOR agonist/antagonist activity in AtT20 cells expressing μORs. Type of data set: cell-based. Conditions: 1 μM.
The next data set has as its system Nav channels. The data set can be described thus: Pain target screen, Nav channels.
In a further data set the test system is Cav channels. The experiment in a line: Pain target screen, Cav channels.
Data set [10] concerns the target α7 nicotinic acetylcholine receptors (Homo sapiens, UniProt P36544). The data set can be described thus: Pain target screen, α7 nicotinic acetylcholine receptors.
Another data set has as its target CB1 (Homo sapiens, UniProt P21554). The experiment in a line: Lipid receptor screen, agonist/antagonist.
Another data set has as its target CB2 (Homo sapiens, UniProt P34972). The data set can be described thus: Lipid receptor screen, agonist/antagonist.
The test system of data set [11] is sphingosine-1-phosphate receptor. The experiment in a line: Lipid receptor screen, agonist/antagonist.
The nature of data set [12]: In vivo pharmacokinetic study, plasma and brain exposure. Details: species or system rat.

“Also recorded” adds a separate entry of the source. Some results are limits rather than exact numbers.

Sequence of α7 nicotinic acetylcholine receptors (P36544 23-502): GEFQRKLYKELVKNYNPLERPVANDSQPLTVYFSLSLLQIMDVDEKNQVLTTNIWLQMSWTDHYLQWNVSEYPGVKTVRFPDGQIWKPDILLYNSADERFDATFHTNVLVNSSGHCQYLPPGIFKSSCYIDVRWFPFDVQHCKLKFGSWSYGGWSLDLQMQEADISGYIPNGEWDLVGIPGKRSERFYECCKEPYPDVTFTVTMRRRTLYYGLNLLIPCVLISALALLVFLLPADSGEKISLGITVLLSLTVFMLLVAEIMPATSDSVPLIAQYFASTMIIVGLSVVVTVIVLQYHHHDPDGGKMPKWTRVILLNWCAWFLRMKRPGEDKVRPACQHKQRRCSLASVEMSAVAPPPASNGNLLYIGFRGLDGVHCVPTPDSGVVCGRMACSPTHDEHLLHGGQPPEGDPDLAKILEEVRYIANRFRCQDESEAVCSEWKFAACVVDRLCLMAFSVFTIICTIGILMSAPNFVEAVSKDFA
Sequence of norepinephrine transporter (P23975 whole entry, species assumed): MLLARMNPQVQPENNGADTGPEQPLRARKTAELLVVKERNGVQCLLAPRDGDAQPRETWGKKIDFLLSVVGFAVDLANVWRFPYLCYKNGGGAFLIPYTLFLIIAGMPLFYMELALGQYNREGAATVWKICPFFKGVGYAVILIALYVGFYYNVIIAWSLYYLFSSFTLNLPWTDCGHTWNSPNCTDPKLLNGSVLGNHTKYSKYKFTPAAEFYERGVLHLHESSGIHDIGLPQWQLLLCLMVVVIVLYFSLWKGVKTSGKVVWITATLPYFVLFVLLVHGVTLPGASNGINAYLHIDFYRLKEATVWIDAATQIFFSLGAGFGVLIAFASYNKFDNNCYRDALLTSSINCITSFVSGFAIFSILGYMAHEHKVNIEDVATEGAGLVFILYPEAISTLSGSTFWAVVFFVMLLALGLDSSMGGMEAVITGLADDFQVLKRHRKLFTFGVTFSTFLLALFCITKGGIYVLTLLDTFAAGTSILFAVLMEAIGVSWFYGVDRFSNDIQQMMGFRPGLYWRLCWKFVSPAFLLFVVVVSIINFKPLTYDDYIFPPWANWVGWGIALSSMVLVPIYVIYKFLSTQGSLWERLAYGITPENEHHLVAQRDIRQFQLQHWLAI
Sequence of CB1 (P21554 whole entry, species assumed): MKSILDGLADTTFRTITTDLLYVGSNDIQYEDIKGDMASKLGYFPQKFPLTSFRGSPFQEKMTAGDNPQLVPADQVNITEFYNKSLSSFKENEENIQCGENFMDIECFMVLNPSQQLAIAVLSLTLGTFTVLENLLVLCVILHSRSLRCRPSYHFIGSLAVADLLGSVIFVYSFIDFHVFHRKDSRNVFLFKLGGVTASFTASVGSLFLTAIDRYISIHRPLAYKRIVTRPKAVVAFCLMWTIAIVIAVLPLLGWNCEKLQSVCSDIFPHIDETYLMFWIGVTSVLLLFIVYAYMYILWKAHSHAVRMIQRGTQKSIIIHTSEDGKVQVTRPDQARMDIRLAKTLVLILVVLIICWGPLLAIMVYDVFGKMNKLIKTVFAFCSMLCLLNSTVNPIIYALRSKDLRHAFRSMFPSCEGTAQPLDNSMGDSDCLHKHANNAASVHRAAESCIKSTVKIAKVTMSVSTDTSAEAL
Sequence of CB2 (P34972 whole entry, species assumed): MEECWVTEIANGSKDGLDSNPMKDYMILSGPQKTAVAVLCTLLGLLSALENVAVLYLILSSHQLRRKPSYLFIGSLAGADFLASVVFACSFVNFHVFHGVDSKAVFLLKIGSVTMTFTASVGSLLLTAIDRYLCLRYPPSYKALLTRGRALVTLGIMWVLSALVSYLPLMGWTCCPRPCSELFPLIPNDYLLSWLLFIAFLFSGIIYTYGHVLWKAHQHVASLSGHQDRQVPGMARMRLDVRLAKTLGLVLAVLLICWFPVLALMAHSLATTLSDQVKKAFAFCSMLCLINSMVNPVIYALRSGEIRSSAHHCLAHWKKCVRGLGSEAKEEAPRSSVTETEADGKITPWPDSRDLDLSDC
Sequence of μOR (P35372 whole entry): as the sequence (P35372 whole entry, species assumed) above

For orientation: IC50 means the midpoint of a concentration-inhibition curve. For the compound `N[C@@H](COC(c1cccc(F)c1)c1ccccc1OCc1ccccc1)C(=O)O` (stereo partly shown) [Compound 1, ALX1393], in the data set with GlyT2 [1], the IC50 is 100 nM. For the same compound, in [2], the “ratio of unbound drug in brain and plasma (Kp,uu)” value is recorded as 0.05.
For `COc1cc(C(=O)NCC2(N(C)C)CCCC2)cc(OC)c1OCc1ccccc1` [Compound 2, ORG25543], the “reversal of allodynia (analgesia)” value in [3] is recorded as “Non-significant reversal of allodynia”. In the data set on male Sprague Dawley rats, the “animals with side effects” value is reported as 4 out of the 6, the “duration of side effects post injection” value was “up to 60 min” and the side effects result is reported as “more severe side effects”. The IC50 in the data set with GlyT2 [1] is 16 nM. Besides, in the data set with GlyT1, the “activity at GlyT1” value is “no appreciable activity”.
On to `CCCCCCCC/C=C\CCCCCCCC(=O)NCC(=O)O` [Compound 4, N-oleoyl glycine], for which the “effect on GlyT1” value with GlyT1 (concentrations up to 10 μM) is given as “no effect”.
As to `CCCCC/C=C\C/C=C\C/C=C\C/C=C\CCCC(=O)NCC(=O)O` [Compound 5, N-arachidonyl glycine], the “activity at GlyT1” value in the data set on GlyT1 is given as “little activity”.
As to `CCCCCCCC/C=C\CCCCCCCC(=O)N[C@@H](CCSC)C(=O)O` [Compound 12, (2S)-4-methylsulfanyl-2-[[(Z)-octadec-9-enoyl]amino]butanoic acid], on human GlyT2a (relative to 14), the “fold improvement in GlyT2 activity” value was ~ 9 fold.
Take `CCCCCCCC/C=C\CCCCCCCC(=O)N[C@@H](CCCC)C(=O)O` [Compound 14, (2S)-2-[[(Z)-octadec-9-enoyl]amino]hexanoic acid]: at human GlyT2a (relative to 10), the “fold less potent than 10 at GlyT2” value amounted to 2 fold.
Usually half-life stands for how long it takes for the measured level to halve. Regarding `CCCCCCCC/C=C\CCCCCCCC(=O)N[C@@H](CCCCN)C(=O)O.Cl` [Compound 32, (2S)-6-amino-2-[[(Z)-octadec-9-enoyl]amino]hexanoic acid.HCl], at human GlyT1b, the “inhibition of GlyT1 glycine currents” value is “not reduced”. In addition, the “mechanism of GlyT2 inhibition” value on GlyT2 [4] is reported as “non-competitive inhibitor”. In data set [5] (human, human plasma (pooled)), this compound displayed a half-life at 1000 ng/mL above 17 h. For the same compound, the “fold improvement of degradation half-life” value in the data set “Stability in rat plasma” (rat plasma, relative to 4) is reported as ~ 3 fold. In addition, in [6], the “stability in human liver microsomes” value is on record as “stable” and the half-life at 1 μM was above 4.25 h. Also, the “stability in rat liver microsomes” value in [7] is given as “rapidly metabolised”.
In the case of `CCCCCCCC/C=C\CCCCCCCC(=O)N[C@H](CCCCN)C(=O)O.Cl` [Compound 33, (2R)-6-amino-2-[[(Z)-octadec-9-enoyl]amino]hexanoic acid.HCl], the “inhibition of GlyT1 glycine currents” value on human GlyT1b is “little inhibition”. Moreover, the “recovery of transport after washout” value on GlyT2 [8] is on record as “completely restored”. For the same compound, the “degradation in human plasma” value in data set [5] is reported as “did not exhibit measurable degradation”. In addition, the “degradation in rat plasma” value in the data set “Stability in rat plasma” is “did not exhibit measurable degradation”. Moreover, the “stability in human liver microsomes” value in data set [6] is given as “stable”. Moreover, the half-life at 1 μM is above 4.25 h in data set [6] and above 4.25 h in data set [7] (rat, rat liver microsomes, pH 7.4). In addition, the “stability in rat liver microsomes” value in data set [7] was “minimally degraded”. Also, the “displacement of radioactive ligands” value (on Adrenergic α2A receptor; in data set [9]; on μ opioid receptor (μOR)) was “greater than 50%” throughout. For the same compound, the “activity as a μOR agonist or antagonist” value at μOR is “no activity”. For the same compound, the “inhibition of Nav channels” value with Nav channels is reported as “no significant inhibition”. The “inhibition of Cav channels” value with Cav channels was “no significant inhibition”. The “inhibition of α7 nicotinic acetylcholine receptors” value in data set [10] is recorded as “no significant inhibition”. In addition, the “activity as agonist or antagonist at CB1” value on CB1 was “no activity”. For the same compound, at CB2, the “activity as agonist or antagonist at CB2” value is given as “no activity”. For the same compound, the “activity as agonist or antagonist at sphingosine-1-phosphate receptor” value in data set [11] is on record as “no activity”. Besides, the “concentration of unbound drug (Cunbound) in brain at Cmax” value in [12] (27.5 mg/kg ip) was “approximately 90 nM”. Also, the “Cmax Brain” value in data set [12] (single 27.5 mg/kg ip, Sprague Dawley rats) worked out at 1854 ng/g. Further, the “reversal of allodynia (analgesia)” value in data set [3] is reported as “significant analgesia; also recorded: Significant reversal of allodynia”. Moreover, the “duration of side effects post injection” value in the data set with male Sprague Dawley rats is reported as “up to 15 min”. In the data set on male Sprague Dawley rats, the side effects result is given as “Mild side effects”.
On to `CCCCCCCC/C=C\CCCCCCCC(=O)NCCCCCN.Cl` [Compound 37, (Z)-N-(5-aminopentyl)octadec-9-enamide.HCl], for which the “fold reduction of GlyT2 potency” value at human GlyT2a (relative to 32) is on record as ~ 22 fold.
